Like-named read-outs stand apart in the source and are kept apart here.
Key:
CAMKKb = CAMKKb (Homo sapiens (Human), UniProt Q96RR4); experiment: Dundee profiling
[1] = biological target: RSK4 (Kin.Dom.1-N-terminal) (Homo sapiens (Human), UniProt Q9UK32); experiment: KinomeScan; format: binding; settings: 1 uM
ACVR2B = ACVR2B (Homo sapiens (Human), UniProt Q13705); experiment: KinomeScan; format: binding; settings: 1 uM
PKD1 = PKD1 (Homo sapiens (Human), UniProt Q15139); experiment: Dundee profiling
HER4 = HER4 (Homo sapiens (Human), UniProt Q15303); experiment: Dundee profiling
CHEK1 = CHEK1 (Homo sapiens (Human), UniProt O14757); experiment: KinomeScan; format: binding; settings: 1 uM
JNK3 [2] = biological target: T1, JNK3 (Homo sapiens (Human), UniProt P53779); experiment: Dundee profiling
MEKK1 = MEKK1 (Homo sapiens (Human), UniProt Q13233); experiment: Dundee profiling
ULK1 [3] = biological target: T2, ULK1 (Homo sapiens (Human), UniProt O75385); experiment: KinomeScan; format: binding; settings: 1 uM
SGK1 = SGK1 (Homo sapiens (Human), UniProt O00141); experiment: Dundee profiling
BRSK1 = BRSK1 (Homo sapiens (Human), UniProt Q8TDC3); experiment: Dundee profiling
LKB1 = LKB1 (Homo sapiens (Human), UniProt Q15831); experiment: Dundee profiling
GCK = GCK (Homo sapiens (Human), UniProt Q12851); experiment: Dundee profiling
[4] = biological target: RSK4 (Kin.Dom.2-C-terminal) (Homo sapiens (Human), UniProt Q9UK32); experiment: KinomeScan; format: binding; settings: 1 uM
SRPK1 = SRPK1 (Homo sapiens (Human), UniProt Q96SB4); experiment: Dundee profiling
EGFR (G719C) = EGFR (G719C) (Homo sapiens (Human), UniProt P00533, G719C); experiment: KinomeScan; format: binding; settings: 1 uM
PRKR = PRKR (Homo sapiens (Human), UniProt P19525); experiment: KinomeScan; format: binding; settings: 1 uM
PFTK1 = PFTK1 (Homo sapiens (Human), UniProt O94921); experiment: KinomeScan; format: binding; settings: 1 uM
DLK = DLK (Homo sapiens (Human), UniProt Q12852); experiment: KinomeScan; format: binding; settings: 1 uM
ASK1 = ASK1 (Homo sapiens (Human), UniProt Q99683); experiment: Dundee profiling
MNK2 = MNK2 (Homo sapiens (Human), UniProt Q9HBH9); experiment: Dundee profiling
DCAMKL1 = DCAMKL1 (Homo sapiens (Human), UniProt O15075); experiment: KinomeScan; format: binding; settings: 1 uM
JNK3 [5] = biological target: T1, JNK3; experiment: KinomeScan; format: binding; settings: 1 uM
JNK1 = JNK1 (Homo sapiens (Human), UniProt P45983); experiment: Dundee profiling
LZK = LZK (Homo sapiens (Human), UniProt O43283); experiment: KinomeScan; format: binding; settings: 1 uM
TTK = TTK (Homo sapiens (Human), UniProt P33981); experiment: Dundee profiling
JNK2 = JNK2 (Homo sapiens (Human), UniProt P45984); experiment: Dundee profiling
RSK1 = RSK1 (Homo sapiens (Human), UniProt Q15418); experiment: Dundee profiling
ULK1 [6] = biological target: T2, ULK1; experiment: Dundee profiling
CLK2 = CLK2 (Homo sapiens (Human), UniProt P49760); experiment: Dundee profiling
p38a MAPK = p38a MAPK (Homo sapiens (Human), UniProt Q16539); experiment: Dundee profiling
DYRK3 = DYRK3 (Homo sapiens (Human), UniProt O43781); experiment: Dundee profiling
BRK = BRK (Homo sapiens (Human), UniProt Q13882); experiment: Dundee profiling
MST4 = MST4 (Homo sapiens (Human), UniProt Q9P289); experiment: Dundee profiling
MELK = MELK (Homo sapiens (Human), UniProt Q14680); experiment: Dundee profiling
[7] = read-out: percent remaining enzymatic activity, I1, 1 μM
[8] = read-out: percent remaining enzymatic activity, I10
[9] = read-out: percent remaining enzymatic activity

T1 sequence (P53779 whole entry, species assumed): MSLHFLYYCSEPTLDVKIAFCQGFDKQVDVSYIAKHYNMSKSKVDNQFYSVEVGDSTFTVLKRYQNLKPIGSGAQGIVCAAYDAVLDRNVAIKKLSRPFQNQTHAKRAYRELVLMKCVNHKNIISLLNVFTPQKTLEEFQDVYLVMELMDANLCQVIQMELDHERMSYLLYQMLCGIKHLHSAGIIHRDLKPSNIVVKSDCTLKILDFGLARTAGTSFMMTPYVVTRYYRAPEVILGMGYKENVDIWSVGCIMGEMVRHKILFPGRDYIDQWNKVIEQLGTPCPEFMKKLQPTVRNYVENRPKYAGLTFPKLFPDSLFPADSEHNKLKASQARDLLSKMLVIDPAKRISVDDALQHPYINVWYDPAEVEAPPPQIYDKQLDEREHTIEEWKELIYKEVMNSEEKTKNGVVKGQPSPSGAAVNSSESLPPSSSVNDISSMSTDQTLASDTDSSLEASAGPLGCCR
T2 sequence (O75385 whole entry, species assumed): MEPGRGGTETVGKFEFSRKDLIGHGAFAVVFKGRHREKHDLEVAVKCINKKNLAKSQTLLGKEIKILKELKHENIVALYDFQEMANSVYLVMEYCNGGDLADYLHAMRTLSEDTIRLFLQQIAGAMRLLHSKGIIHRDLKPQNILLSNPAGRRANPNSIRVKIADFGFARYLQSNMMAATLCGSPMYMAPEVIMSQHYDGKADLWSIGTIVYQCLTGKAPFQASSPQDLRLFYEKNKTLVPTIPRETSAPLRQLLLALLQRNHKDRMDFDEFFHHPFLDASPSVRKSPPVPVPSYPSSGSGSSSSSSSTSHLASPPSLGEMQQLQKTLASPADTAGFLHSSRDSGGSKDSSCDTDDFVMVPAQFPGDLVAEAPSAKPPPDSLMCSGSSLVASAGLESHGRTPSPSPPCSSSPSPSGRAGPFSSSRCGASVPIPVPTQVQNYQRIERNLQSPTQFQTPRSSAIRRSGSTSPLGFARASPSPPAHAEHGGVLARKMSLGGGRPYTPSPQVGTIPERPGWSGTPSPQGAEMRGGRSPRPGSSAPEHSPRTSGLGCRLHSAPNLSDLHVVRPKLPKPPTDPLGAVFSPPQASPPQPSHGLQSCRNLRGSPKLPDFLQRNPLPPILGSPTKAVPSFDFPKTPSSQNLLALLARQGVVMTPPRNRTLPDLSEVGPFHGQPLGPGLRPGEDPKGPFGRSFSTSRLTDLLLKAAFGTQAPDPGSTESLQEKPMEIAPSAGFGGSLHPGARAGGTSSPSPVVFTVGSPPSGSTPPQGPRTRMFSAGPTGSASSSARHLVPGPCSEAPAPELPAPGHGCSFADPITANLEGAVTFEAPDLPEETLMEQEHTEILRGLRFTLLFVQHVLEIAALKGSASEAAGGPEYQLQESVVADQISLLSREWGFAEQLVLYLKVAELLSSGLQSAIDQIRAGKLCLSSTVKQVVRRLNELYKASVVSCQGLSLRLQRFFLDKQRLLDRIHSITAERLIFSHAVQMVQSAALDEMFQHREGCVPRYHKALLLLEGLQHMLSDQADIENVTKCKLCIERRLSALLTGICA
Sequence of SRPK1 (Q96SB4 whole entry, looked up, species assumed): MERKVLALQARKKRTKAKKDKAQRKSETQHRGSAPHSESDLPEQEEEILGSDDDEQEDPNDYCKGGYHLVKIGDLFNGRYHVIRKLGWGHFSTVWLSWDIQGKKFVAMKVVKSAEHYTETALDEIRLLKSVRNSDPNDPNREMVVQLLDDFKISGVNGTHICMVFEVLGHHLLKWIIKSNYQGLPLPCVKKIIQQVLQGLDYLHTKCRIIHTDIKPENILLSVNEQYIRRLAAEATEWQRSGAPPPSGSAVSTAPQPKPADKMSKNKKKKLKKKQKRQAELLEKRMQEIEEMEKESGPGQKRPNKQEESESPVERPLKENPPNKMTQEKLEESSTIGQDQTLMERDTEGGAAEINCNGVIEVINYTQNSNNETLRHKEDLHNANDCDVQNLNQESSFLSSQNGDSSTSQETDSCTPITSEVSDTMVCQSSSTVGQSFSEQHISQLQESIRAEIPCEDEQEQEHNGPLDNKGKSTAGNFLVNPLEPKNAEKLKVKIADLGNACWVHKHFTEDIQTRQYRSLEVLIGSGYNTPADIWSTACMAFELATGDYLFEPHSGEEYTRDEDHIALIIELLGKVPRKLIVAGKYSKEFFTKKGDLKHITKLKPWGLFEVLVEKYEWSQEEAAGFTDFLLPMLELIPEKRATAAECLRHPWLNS
Sequence of BRK (Q13882 whole entry, looked up, species assumed): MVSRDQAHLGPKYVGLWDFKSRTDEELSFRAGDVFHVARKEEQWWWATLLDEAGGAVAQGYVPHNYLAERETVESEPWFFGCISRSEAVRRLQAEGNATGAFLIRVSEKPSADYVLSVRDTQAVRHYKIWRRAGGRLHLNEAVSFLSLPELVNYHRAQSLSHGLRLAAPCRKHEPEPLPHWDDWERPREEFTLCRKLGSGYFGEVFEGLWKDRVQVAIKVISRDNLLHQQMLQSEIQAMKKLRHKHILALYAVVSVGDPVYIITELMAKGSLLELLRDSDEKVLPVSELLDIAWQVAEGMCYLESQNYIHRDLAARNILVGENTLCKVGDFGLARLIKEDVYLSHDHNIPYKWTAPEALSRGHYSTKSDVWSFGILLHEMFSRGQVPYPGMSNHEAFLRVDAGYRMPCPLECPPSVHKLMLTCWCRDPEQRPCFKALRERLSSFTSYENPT
Sequence of MELK (Q14680 whole entry, species assumed): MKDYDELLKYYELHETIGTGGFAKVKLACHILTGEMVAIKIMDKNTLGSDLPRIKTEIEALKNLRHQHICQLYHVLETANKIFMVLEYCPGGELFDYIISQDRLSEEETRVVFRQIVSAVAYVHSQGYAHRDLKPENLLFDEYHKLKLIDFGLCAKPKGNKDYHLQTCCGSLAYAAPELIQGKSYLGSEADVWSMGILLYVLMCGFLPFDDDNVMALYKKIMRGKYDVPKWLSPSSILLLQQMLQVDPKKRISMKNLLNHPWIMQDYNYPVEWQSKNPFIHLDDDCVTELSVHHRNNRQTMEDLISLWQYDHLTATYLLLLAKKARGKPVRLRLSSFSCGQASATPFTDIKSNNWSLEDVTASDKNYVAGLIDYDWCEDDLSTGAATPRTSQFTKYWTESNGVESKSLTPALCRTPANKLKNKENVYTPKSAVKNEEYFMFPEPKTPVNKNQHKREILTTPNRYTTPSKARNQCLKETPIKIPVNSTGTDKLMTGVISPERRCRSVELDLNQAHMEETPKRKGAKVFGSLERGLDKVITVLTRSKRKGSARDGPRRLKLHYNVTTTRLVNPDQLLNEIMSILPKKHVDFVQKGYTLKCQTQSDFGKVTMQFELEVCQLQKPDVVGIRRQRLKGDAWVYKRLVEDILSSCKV
Sequence of GCK (Q12851 whole entry): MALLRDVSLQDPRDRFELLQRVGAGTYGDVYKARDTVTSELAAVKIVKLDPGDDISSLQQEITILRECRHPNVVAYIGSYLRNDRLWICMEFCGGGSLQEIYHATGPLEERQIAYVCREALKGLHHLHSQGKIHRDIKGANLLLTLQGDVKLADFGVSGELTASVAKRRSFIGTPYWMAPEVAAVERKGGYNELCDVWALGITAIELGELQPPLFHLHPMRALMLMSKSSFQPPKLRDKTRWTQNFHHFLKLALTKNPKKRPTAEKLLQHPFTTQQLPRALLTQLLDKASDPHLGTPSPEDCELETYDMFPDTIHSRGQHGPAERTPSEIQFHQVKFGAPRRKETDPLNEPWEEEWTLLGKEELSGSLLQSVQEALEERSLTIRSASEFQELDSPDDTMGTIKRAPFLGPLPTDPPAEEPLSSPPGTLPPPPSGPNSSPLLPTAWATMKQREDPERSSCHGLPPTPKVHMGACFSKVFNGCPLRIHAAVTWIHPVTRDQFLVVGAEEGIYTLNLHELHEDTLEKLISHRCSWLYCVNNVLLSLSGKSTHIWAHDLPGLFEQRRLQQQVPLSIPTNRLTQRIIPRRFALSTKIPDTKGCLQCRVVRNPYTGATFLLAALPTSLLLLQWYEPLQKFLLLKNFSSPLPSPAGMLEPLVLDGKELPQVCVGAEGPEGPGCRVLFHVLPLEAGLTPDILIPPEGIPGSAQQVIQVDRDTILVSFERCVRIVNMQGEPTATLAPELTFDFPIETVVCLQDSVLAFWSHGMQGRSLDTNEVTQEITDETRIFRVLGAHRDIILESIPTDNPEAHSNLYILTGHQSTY
Sequence of MST4 (Q9P289 whole entry, species assumed): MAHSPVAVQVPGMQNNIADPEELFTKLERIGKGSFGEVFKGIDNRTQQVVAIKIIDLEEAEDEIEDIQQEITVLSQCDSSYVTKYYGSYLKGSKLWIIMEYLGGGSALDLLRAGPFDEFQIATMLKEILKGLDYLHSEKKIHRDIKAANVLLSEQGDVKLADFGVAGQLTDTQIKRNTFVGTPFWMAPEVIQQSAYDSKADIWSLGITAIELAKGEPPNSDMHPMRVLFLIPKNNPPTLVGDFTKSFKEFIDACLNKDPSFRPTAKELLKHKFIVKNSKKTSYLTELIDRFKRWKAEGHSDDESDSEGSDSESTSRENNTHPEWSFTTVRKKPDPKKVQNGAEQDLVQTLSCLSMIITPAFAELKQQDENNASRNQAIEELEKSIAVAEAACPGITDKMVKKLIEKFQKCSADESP
Sequence of SGK1 (O00141 whole entry, species assumed): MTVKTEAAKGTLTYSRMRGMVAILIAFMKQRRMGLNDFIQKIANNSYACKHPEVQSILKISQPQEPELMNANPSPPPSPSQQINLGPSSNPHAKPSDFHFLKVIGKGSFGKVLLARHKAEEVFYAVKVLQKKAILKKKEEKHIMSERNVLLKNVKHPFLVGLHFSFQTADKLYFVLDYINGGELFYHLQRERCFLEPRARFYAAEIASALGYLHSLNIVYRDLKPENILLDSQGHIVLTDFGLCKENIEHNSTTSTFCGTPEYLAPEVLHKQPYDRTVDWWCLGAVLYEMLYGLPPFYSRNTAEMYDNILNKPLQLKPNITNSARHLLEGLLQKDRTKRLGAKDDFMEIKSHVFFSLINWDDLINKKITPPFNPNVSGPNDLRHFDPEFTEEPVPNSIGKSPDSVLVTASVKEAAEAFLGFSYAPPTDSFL

`CNc1nc(Nc2ccc(C(=O)N3CCOCC3)cc2OC)nc2[nH]cc(Cl)c12` [Compound 18, (4-((5-chloro-4-(methylamino)-7H-pyrrolo[2,3-d]pyrimidin-2-yl)amino)-3-methoxyphenyl)(morpholino)methanone] was tested, and the remaining activity at 1 µM (CAMKKb; [7]) was 50%, the remaining activity at 1 µM (CAMKKb; [8]) was 16% and the KinomeScan value [1] was 93. The KinomeScan value (ACVR2B) was 100, the remaining activity at 1 µM (PKD1; [7]) was 47% and the remaining activity at 1 µM (PKD1; [8]) was 7%. For the same compound, the remaining activity at 1 µM (HER4; [7]) was 94%, the remaining activity at 1 µM (HER4; [8]) was 71% and the KinomeScan value (CHEK1) was 100. The “percent remaining enzymatic activity” value (JNK3 [2]; I10) was 9%, the remaining activity at 1 µM (JNK3 [2]; [9]) was 29% and the remaining activity at 1 µM (MEKK1; [7]) was 94%. For the same compound, the remaining activity at 1 µM (MEKK1; [8]) was 85%, the KinomeScan value (ULK1 [3]) was 100 and the remaining activity at 1 µM (SGK1; [7]) was 86%. For the same compound, the remaining activity at 1 µM (SGK1; [8]) was 76%, the remaining activity at 1 µM (BRSK1; [7]) was 94% and the remaining activity at 1 µM (BRSK1; [8]) was 98%. The remaining activity at 1 µM (LKB1; [7]) was 103%, the remaining activity at 1 µM (LKB1; [8]) was 96% and the remaining activity at 1 µM (GCK; [7]) was 86%. It also gave a remaining activity at 1 µM (GCK; [8]) of 41%, a KinomeScan value [4] of 90 and a remaining activity at 1 µM (SRPK1; [7]) of 89%. The remaining activity at 1 µM (SRPK1; [8]) was 31%, the KinomeScan value (EGFR (G719C)) was 91 and the KinomeScan value (PRKR) was 96. For the same compound, the KinomeScan value (PFTK1) was 82, the KinomeScan value (DLK) was 89 and the remaining activity at 1 µM (ASK1; [7]) was 56%. It also gave a remaining activity at 1 µM (ASK1; [8]) of 10%, a remaining activity at 1 µM (MNK2; [7]) of 75% and a remaining activity at 1 µM (MNK2; [8]) of 25%. The KinomeScan value (DCAMKL1) was 74, the KinomeScan value (JNK3 [5]) was 67 and the “percent remaining enzymatic activity” value (JNK1; I10) was 6%. For the same compound, the remaining activity at 1 µM (JNK1; [9]) was 38%, the KinomeScan value (LZK) was 92 and the remaining activity at 1 µM (TTK; [7]) was 69%. For the same compound, the remaining activity at 1 µM (TTK; [8]) was 12%, the “percent remaining enzymatic activity” value (JNK2; I10) was 4% and the remaining activity at 1 µM (JNK2; [9]) was 27%. The remaining activity at 1 µM (RSK1; [7]) was 96%, the remaining activity at 1 µM (RSK1; [8]) was 60% and the “percent remaining enzymatic activity” value (ULK1 [6]; I10) was 95%. It also gave a remaining activity at 1 µM (ULK1 [6]; [9]) of 103%, a remaining activity at 1 µM (CLK2; [7]) of 13% and a remaining activity at 1 µM (CLK2; [8]) of 2%. For the same compound, the “percent remaining enzymatic activity” value (p38a MAPK; I10) was 104%, the remaining activity at 1 µM (p38a MAPK; [9]) was 90% and the remaining activity at 1 µM (DYRK3; [7]) was 74%. The remaining activity at 1 µM (DYRK3; [8]) was 30%, the remaining activity at 1 µM (BRK; [7]) was 62% and the remaining activity at 1 µM (BRK; [8]) was 19%. It also gave a remaining activity at 1 µM (MST4; [7]) of 103%, a remaining activity at 1 µM (MST4; [8]) of 97% and a remaining activity at 1 µM (MELK; [7]) of 118%. It also gave a remaining activity at 1 µM (MELK; [8]) of 79%.

Source: patent publication US10913744B2, “LRRK2 inhibitors and methods of making and using the same” (Dana-Farber Cancer Institute, Inc., priority 2015, dated 2021)
